Test results reported in PMC3260189, “The Location and Nature of General Anesthetic Binding Sites on the Active Conformation of Firefly Luciferase; A Time Resolved Photolabeling Study” (PLoS ONE, 2012).
Each block holds one molecule with its values, some of them ahead of it.

Tests used:
[1] = target: T1, American firefly luciferase (Photinus pyralis, UniProt P08659); experiment: equilibrium photolabeling with LC-MSMS; assay type: binding
T1 construct: recombinant luciferase

[2] = target: T1, American firefly luciferase; experiment: stopped-flow inhibition of initial light output; assay type: biochemical
[3] = target: T2, Japanese firefly luciferase (Nipponoluciola cruciata, UniProt P13129); experiment: [3H] photoincorporation and time-resolved photolabeling with LC-MSMS; assay type: binding
T2 construct: recombinant luciferase
T2 sequence (P13129 1-548): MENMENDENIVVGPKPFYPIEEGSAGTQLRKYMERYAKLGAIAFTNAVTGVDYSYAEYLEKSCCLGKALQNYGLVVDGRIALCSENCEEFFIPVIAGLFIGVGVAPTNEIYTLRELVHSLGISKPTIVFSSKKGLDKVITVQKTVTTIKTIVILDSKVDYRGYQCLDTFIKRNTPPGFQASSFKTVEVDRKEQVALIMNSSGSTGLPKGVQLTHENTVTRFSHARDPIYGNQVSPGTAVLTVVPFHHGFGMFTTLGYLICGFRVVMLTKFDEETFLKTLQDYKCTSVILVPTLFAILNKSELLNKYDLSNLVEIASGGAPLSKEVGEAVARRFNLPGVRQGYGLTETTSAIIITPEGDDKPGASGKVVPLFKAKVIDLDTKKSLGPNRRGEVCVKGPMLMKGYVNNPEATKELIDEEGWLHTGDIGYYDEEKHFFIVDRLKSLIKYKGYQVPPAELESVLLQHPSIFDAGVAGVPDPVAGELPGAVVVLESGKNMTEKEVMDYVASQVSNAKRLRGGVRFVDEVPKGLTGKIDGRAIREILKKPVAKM

[4] = target: T1, American firefly luciferase; experiment: stopped-flow inhibition of initial ATP-induced light output; photolabeling with LC-MSMS also done; assay type: biochemical

T1 sequence (P08659 whole entry): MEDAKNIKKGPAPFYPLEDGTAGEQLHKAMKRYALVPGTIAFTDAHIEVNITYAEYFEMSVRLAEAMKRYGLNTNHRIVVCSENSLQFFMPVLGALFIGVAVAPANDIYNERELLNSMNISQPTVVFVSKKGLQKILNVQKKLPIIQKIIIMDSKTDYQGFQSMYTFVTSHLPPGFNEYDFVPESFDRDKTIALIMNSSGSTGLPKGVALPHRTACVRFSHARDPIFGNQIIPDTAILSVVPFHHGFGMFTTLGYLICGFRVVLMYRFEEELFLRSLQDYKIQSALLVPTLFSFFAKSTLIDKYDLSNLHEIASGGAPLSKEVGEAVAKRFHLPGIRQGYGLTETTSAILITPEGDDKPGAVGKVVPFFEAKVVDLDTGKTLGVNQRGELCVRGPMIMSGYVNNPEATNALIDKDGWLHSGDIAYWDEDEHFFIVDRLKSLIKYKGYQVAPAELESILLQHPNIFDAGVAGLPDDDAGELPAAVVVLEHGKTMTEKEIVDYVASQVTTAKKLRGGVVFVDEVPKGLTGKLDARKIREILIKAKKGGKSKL

SMILES: CC1(CCCCCCO)N=N1 [7-azioctanol]
- equilibrium photolabeling with LC-MSMS [1]: photolabeled the American firefly luciferase at equilibrium with the azialkanols, and found the labeling pattern to be identical

- IC50 [2]: ~ 225 µM
SMILES: CCCCCCCCO [1-octanol]

- Kd [3]: > 1000 µM
- IC50 [4]: 200 ± 46 µM
SMILES: CCCCCC1(CCO)N=N1 [3-azioctanol, 3-(2-hydroxyethyl)-3-n-pentyldiazirine]
